Source: BindingDB's records for doi:10.1016/j.bmcl.2009.04.147 (Banyu Pharmaceutical, 2009)

Molecular target: Melanin-concentrating hormone receptor 1 (Homo sapiens, UniProt Q99705)
Assay: Radioligand Binding Assay (IC50) and Functional Assay (EC50/IC50)
Settings: pH 7.4; 22 °C
Procedure: Compounds were evaluated for their binding affinity to the membranes of CHO-K1 cells expressing human MCH1R (hMCH1R) in a competition binding assay with [125I]-MCH as the radioligand. After incubation, the membranes were filtrated onto GF/C filter plates and dried. The radioactivity was counted using a microplate scintillation counter (TopCount, PerkinElmer). Non-specific binding was determined by including 1 uM unlabeled MCH in the binding reaction. Antagonistic activity (EC50/IC50) was estimated by the inhibitory effect of compounds on intracellular calcium mobilization induced by MCH using a FLIPR in CHO-K1 cells expressing human MCH1R. The cells were treated with the test compounds for 5 min before addition of MCH.

Chain of Melanin-concentrating hormone receptor 1 (Q99705 as listed by the source): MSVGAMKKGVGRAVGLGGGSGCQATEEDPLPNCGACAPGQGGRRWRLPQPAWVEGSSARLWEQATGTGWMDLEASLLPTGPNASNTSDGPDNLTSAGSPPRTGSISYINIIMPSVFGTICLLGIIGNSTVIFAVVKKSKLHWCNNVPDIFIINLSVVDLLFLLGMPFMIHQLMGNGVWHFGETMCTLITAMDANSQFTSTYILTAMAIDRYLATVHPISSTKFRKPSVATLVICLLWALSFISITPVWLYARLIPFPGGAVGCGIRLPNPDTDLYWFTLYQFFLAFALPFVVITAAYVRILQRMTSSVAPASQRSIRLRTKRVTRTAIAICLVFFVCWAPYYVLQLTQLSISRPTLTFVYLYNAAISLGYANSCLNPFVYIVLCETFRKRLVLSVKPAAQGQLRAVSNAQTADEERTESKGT

| SMILES | IC50 |
| --- | --- |
| CN(c1nc2ccc(NC(=O)CCc3ccc(C(F)(F)F)cc3)cc2[nH]1)C1CCCCC1 [2-aminobenzimidazole-based compound, 13] | 27 nM |
| CC(C)N(C)c1nc2ccc(NC(=O)CCc3ccc(C(F)(F)F)cc3)cc2[nH]1 [2-aminobenzimidazole-based compound, 8] | 21 nM |
| CN(c1nc2ccc(NC(=O)CCc3ccc(C(F)(F)F)cc3)cc2[nH]1)C1CCCC1 [2-aminobenzimidazole-based compound, 12] | 22 nM |
